Test results as given in patent US11629145B2, “SHP2 phosphatase inhibitors and methods of use thereof” (Relay Therapeutics, Inc., priority 2016, dated 2023).

What follows are compounds tested against SHP2 (Homo sapiens (Human), UniProt Q06124) (assay: SHP2 Allosteric Inhibition Assay). Settings: 0.25 nM SHP2 activated with 0.5 μM bis-phosphorylated IRS1 peptide; DiFMUP substrate, prompt fluorescence.
Type: biochemical

Sequence of SHP2 (Q06124 whole entry): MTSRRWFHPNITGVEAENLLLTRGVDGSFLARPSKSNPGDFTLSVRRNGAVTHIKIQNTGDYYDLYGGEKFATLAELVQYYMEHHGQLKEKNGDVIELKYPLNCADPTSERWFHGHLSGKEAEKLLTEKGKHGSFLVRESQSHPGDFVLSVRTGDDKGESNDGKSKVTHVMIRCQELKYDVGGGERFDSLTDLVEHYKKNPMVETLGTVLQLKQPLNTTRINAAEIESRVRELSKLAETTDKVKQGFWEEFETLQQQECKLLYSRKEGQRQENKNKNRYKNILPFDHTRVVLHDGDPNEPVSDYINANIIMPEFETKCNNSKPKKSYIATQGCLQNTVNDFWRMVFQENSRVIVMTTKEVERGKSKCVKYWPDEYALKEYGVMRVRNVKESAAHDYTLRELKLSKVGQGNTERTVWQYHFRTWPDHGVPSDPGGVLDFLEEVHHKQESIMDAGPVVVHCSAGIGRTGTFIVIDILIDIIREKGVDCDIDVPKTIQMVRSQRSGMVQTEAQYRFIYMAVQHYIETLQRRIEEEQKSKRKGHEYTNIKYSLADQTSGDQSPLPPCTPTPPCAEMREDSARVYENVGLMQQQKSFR

SMILES	IC50 [nM]
CC1(N)CCN(c2cnc3c(Oc4ccccc4)n[nH]c3n2)CC1 [Compound 20]	< 1000
CC1(N)CCN(c2cnc3c(OC4CCCNC4)n[nH]c3n2)CC1 (stereo not drawn) [Compound 21]	≥ 10000
CC1(N)CCN(c2cnc3c(OCc4ccccc4)n[nH]c3n2)CC1 [Compound 22]	< 1000
Cc1cc(Oc2n[nH]c3nc(N4CCC(C)(N)CC4)cnc23)ccn1 [Compound 23]	< 1000
Cc1cnccc1Oc1n[nH]c2nc(N3CCC(C)(N)CC3)cnc12 [Compound 24]	< 1000
CC1(N)CCN(c2cnc3c(OCc4cccnc4)n[nH]c3n2)CC1 [Compound 25]	1000 to 10000
CC1(N)CCN(c2cnc3c(Oc4ccccc4C#N)n[nH]c3n2)CC1 [Compound 26]	< 1000
CC1(N)CCN(c2cnc3c(Oc4ncccc4C#N)n[nH]c3n2)CC1 [Compound 27]	< 1000
CC(Oc1n[nH]c2nc(N3CCC(C)(N)CC3)cnc12)c1ccccc1 (stereo not drawn) [Compound 28]	< 1000
Cc1nccc(Oc2n[nH]c3nc(N4CCC(C)(N)CC4)cnc23)c1C [Compound 29]	< 1000
CC1(N)CCN(c2cnc3c(OCc4cccnc4N)n[nH]c3n2)CC1 [Compound 30]	< 1000
CC1(N)CCN(c2cnc3c(Oc4ccccc4Cl)n[nH]c3n2)CC1 [Compound 31]	< 1000
CC1(N)CCN(c2cnc3c(Oc4ccncc4Cl)n[nH]c3n2)CC1 [Compound 32]	< 1000
CC1(N)CCN(c2cnc3c(OCc4ccccc4C#N)n[nH]c3n2)CC1 [Compound 33]	< 1000
CC1(N)CCN(c2cnc3c(Oc4ccc(N)cc4C#N)n[nH]c3n2)CC1 [Compound 34]	< 1000
CC(=O)N1CCCC(Oc2n[nH]c3nc(N4CCC(C)(N)CC4)cnc23)C1 (stereo not drawn) [Compound 35]	1000 to 10000
CC1(N)CCN(c2cnc3c(Oc4ccc(N)cc4Cl)n[nH]c3n2)CC1 [Compound 36]	< 1000
Cc1cc(Oc2n[nH]c3nc(N4CCC(C)(N)CC4)cnc23)c(Cl)cn1 [Compound 37]	< 1000
Cc1nccc(Oc2n[nH]c3nc(N4CC[C@@H](N)C[C@@H]4C)cnc23)c1Cl [Compound 38]	< 1000
Cc1nccc(Oc2n[nH]c3nc(N4CCC(C)(N)CC4)cnc23)c1Cl [Compound 39]	< 1000
CC1(N)CCN(c2cnc3c(OCc4ccncc4Cl)n[nH]c3n2)CC1 [Compound 40]	< 1000
CC1(N)CCN(c2cnc3c(Oc4cc(N)ncc4Cl)n[nH]c3n2)CC1 [Compound 42]	< 1000
CC1(CN)CCN(c2cnc3c(Oc4ccnc(N)c4Cl)n[nH]c3n2)C1 (stereo not drawn) [Compound 43]	< 1000

SMILES	IC50 [nM]
CC1(N)CCN(c2cnc3c(Oc4cccc(C(F)F)n4)n[nH]c3n2)CC1 [Compound 44]	1000 to 10000
CC1(N)CCN(c2cnc3c(Oc4ccnc(O)c4Cl)n[nH]c3n2)CC1 [Compound 45]	< 1000
CC1(N)CCN(c2cnc3c(OCc4cccc5[nH]ccc45)n[nH]c3n2)CC1 [Compound 46]	< 1000
COc1nccc(Oc2n[nH]c3nc(N4CCC(C)(N)CC4)cnc23)c1C#N [Compound 47]	< 1000
CC1(CN)CCN(c2cnc3c(Oc4ccnc(N)c4Cl)n[nH]c3n2)CC1 [Compound 48]	< 1000
Cc1nccc(Oc2n[nH]c3nc(N4CCC(O)(CN)CC4)cnc23)c1Cl [Compound 49]	< 1000
COc1nccc(Oc2n[nH]c3nc(N4CCC(C)(N)CC4)cnc23)c1Cl [Compound 50]	< 1000
CC1(N)CCN(c2cnc3c(Oc4ccncc4C(F)(F)F)n[nH]c3n2)CC1 [Compound 51]	< 1000
CC1(CN)CCN(c2cnc3c(Oc4ccnc(Cl)c4Cl)n[nH]c3n2)C1 (stereo not drawn) [Compound 52]	< 1000
C[C@H]1C[C@H](N)CCN1c1cnc2c(Oc3ccnc(Cl)c3Cl)n[nH]c2n1 [Compound 53]	< 1000
CC1(N)CCN(c2cnc3c(Oc4ccnc(Cl)c4Cl)n[nH]c3n2)CC1 [Compound 54]	< 1000
CC1(N)CCN(c2cnc3c(Oc4ccnc(C(N)=O)c4Cl)n[nH]c3n2)CC1 [Compound 55]	< 1000
CC1(CN)CCN(c2cnc3c(Oc4ccnc(Cl)c4Cl)n[nH]c3n2)CC1 [Compound 56]	< 1000
NCC1(O)CCN(c2cnc3c(Oc4ccnc(Cl)c4Cl)n[nH]c3n2)CC1 [Compound 57]	< 1000
CC1(N)CCN(c2cnc3c(Oc4ccnc(NC5COC5)c4Cl)n[nH]c3n2)CC1 [Compound 58]	1000 to 10000
CC1(N)CCN(c2cnc3c(Oc4cc(Br)ncc4Cl)n[nH]c3n2)CC1 [Compound 59]	< 1000
Cn1cc(-c2nccc(Oc3n[nH]c4nc(N5CCC(C)(N)CC5)cnc34)c2Cl)cn1 [Compound 60]	< 1000
CC1(N)CCN(c2cnc3c(Oc4ccnc(-c5nccs5)c4Cl)n[nH]c3n2)CC1 [Compound 61]	< 1000
CC1(N)CCN(c2cnc3c(Oc4ccnc(N5CCOCC5)c4Cl)n[nH]c3n2)CC1 [Compound 62]	< 1000
COc1ccc(Cn2nc(Oc3ccnc(Cl)c3Cl)c3ncc(N4CC[C@@H](N)C[C@@H]4C)nc32)cc1 [Compound 63]	≥ 10000
COc1ccc(Cn2nc(Oc3ccnc(Cl)c3Cl)c3ncc(N4CCC(O)(CN)CC4)nc32)cc1 [Compound 64]	≥ 10000
CC1(N)CCN(c2cnc3c(N4CCCCc5ccccc54)n[nH]c3n2)CC1 [Compound 82]	< 1000
